Test systems include KM12 colon; K-562 leukemia; U251 CNS; SK-MEL-5 melanoma; ACHN renal; UACC-62 melanoma; 786-0 renal; OVCAR-8 ovarian; OVCAR-4 ovarian.
Holding throughout (test): DTP human tumour cell line panel, 48 h

The text below walks through data of PubChem BioAssay (NCI).

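Exposure lasted 48 hours, with cells grown in 96-well plates and compounds tested at five concentrations. Here, GI50 denotes the concentration required for 50% inhibition of growth. Definition used: TGI = concentration required for complete inhibition of growth.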

In general, TGI refers to the concentration at which net growth stops. Low values mean more potent growth arrest, high ones less potent growth arrest. On to `CC(=O)Nc1ccc(/C=C/C(=O)c2sc(-c3cccnc3)nc2C)cc1`, for which the concentration for total growth inhibition (TGI) in the assay with KM12 colon, with K-562 leukemia, with U251 CNS, in the assay with SK-MEL-5 melanoma, in the assay with ACHN renal and with UACC-62 melanoma was over 100 µM throughout. Moreover, the TGI with 786-0 renal and in the assay with OVCAR-8 ovarian was over 100 µM throughout.
Turning to `C=C(C)[C@H]1CC[C@@]2(C)C(C1)[C@H](C)CC[C@@H]2O` (some centres not stated), the TGI in the assay on KM12 colon, with K-562 leukemia, in the assay with U251 CNS, with OVCAR-4 ovarian, in the assay with SK-MEL-5 melanoma and in the assay with ACHN renal was over 100 µM each time. For the same compound, the TGI in the assay with UACC-62 melanoma, in the assay on 786-0 renal and with OVCAR-8 ovarian was over 100 µM each time.
In the case of `COC1CCC(OS(C)(=O)=O)C(CO)O1` (configuration not stated), the TGI in the assay on KM12 colon, with K-562 leukemia, in the assay with U251 CNS, in the assay on ACHN renal, in the assay with UACC-62 melanoma and with 786-0 renal was over 100 µM in each case. In the assay on OVCAR-8 ovarian, this compound registered a total growth inhibition concentration (TGI) of over 100 µM.
In the case of `CCN(CC)CCCNc1nccc2c(C)c3c(cc12)c1cnccc1n3C`, the TGI is 1.04 µM with K-562 leukemia; 1.77 µM in the assay with U251 CNS; 0.131 µM in the assay with OVCAR-4 ovarian; 1.82 µM with SK-MEL-5 melanoma; 2.41 µM with ACHN renal; 2.25 µM in the assay with UACC-62 melanoma. Moreover, the concentration for total growth inhibition (TGI) turned out to be 1.2 µM in the assay with 786-0 renal and 1.25 µM in the assay with OVCAR-8 ovarian.
What is called GI50 is the concentration at which growth is held to half of that of the control. Regarding `C=CN(C(=O)N1CCN(c2cc3c(cc2F)c(=O)c(C(=O)O)cn3C2CC2)CC1)c1nc(-c2ccc(OC)cc2)cs1`, the GI50 in the assay with KM12 colon is 3.12 µM; in the assay with K-562 leukemia it was 3.14 µM; in the assay with U251 CNS, 4.04 µM; in the assay on OVCAR-4 ovarian it was 3.96 µM; in the assay with SK-MEL-5 melanoma, 2.11 µM; in the assay with ACHN renal, 3.77 µM. For the same compound, the GI50 was 3.37 µM with 786-0 renal and 3.3 µM with OVCAR-8 ovarian. The TGI is over 100 µM with KM12 colon; over 100 µM in the assay on K-562 leukemia; 13.4 µM in the assay with U251 CNS; over 100 µM in the assay with OVCAR-4 ovarian; 4.78 µM in the assay with SK-MEL-5 melanoma; over 100 µM with ACHN renal. Also, the TGI with 786-0 renal was 23.1 µM; in the assay on OVCAR-8 ovarian, 15.5 µM.
Regarding `COc1cc2cc(OC(C)=O)c3cc4c(cc3c2c(OC)c1OC)OCO4`, the TGI in the assay with KM12 colon, with K-562 leukemia, with U251 CNS, with OVCAR-4 ovarian, in the assay with SK-MEL-5 melanoma and in the assay with ACHN renal was over 100 µM in each case. Moreover, the TGI with 786-0 renal and with OVCAR-8 ovarian was over 100 µM each time.
For `O=C1[C@H]2ON(c3ccccc3)C(c3ccc([N+](=O)[O-])cc3)[C@H]2C(=O)N1c1ccc(Cc2ccc(N3C(=O)[C@@H]4ON(c5ccccc5)C(c5ccc([N+](=O)[O-])cc5)[C@@H]4C3=O)cc2)cc1` (some centres not stated), the TGI with KM12 colon, in the assay on K-562 leukemia, in the assay with U251 CNS, in the assay with OVCAR-4 ovarian, in the assay on SK-MEL-5 melanoma and in the assay on ACHN renal was over 100 µM in each case. Moreover, the TGI in the assay with UACC-62 melanoma, with 786-0 renal and in the assay on OVCAR-8 ovarian was over 100 µM throughout.
As to `C=CSCCC(N)C(=O)O` (configuration not stated), the TGI in the assay on KM12 colon, in the assay with K-562 leukemia, in the assay on U251 CNS, in the assay on OVCAR-4 ovarian, in the assay on SK-MEL-5 melanoma and with ACHN renal was over 100 µM throughout. In addition, the total growth inhibition concentration (TGI) in the assay on UACC-62 melanoma, in the assay with 786-0 renal and in the assay on OVCAR-8 ovarian was over 100 µM each time.
For `CC1=N/C(=C/c2ccc3c(c2)OCO3)C(=O)O1`, the TGI in the assay on KM12 colon, in the assay with K-562 leukemia, with U251 CNS, with OVCAR-4 ovarian, with SK-MEL-5 melanoma and with ACHN renal was over 100 µM in each case. The TGI in the assay on UACC-62 melanoma, in the assay on 786-0 renal and in the assay on OVCAR-8 ovarian was over 100 µM each time.
Regarding `C=CCNC(=O)NCCCCC(NC(C)=O)C(=O)NCc1ccccc1` (configuration not stated), the TGI with KM12 colon, with K-562 leukemia, with U251 CNS, with OVCAR-4 ovarian, in the assay with SK-MEL-5 melanoma and in the assay on ACHN renal was over 100 µM each time. The TGI with UACC-62 melanoma, in the assay with 786-0 renal and in the assay with OVCAR-8 ovarian was over 100 µM in each case.
For the compound `O=C(C(=O)c1cc2ccccc2[nH]1)c1cc2ccccc2[nH]1`, the TGI with KM12 colon is over 347 µM; with K-562 leukemia, over 347 µM; in the assay with U251 CNS it was over 347 µM; in the assay with OVCAR-4 ovarian, 299 µM; with SK-MEL-5 melanoma, over 347 µM; in the assay with ACHN renal, over 347 µM. Also, the TGI in the assay with UACC-62 melanoma, in the assay on 786-0 renal and in the assay on OVCAR-8 ovarian was over 347 µM throughout.
On to `Cc1cnc2ccc(C)c([N+](=O)[O-])c2c1NCCCN(C)C`, for which the total growth inhibition concentration (TGI) with KM12 colon, in the assay on K-562 leukemia, with U251 CNS, with OVCAR-4 ovarian, in the assay with ACHN renal and in the assay on 786-0 renal was over 100 µM throughout. In the assay with OVCAR-8 ovarian, this compound displayed a concentration for total growth inhibition (TGI) of over 100 µM.
On to `C=C(CCCCC)CN1CCCC1C(C)=O` (configuration not stated), for which the total growth inhibition concentration (TGI) with KM12 colon was over 100 µM; in the assay with K-562 leukemia it was 51.5 µM; in the assay on U251 CNS it was over 100 µM; in the assay on OVCAR-4 ovarian, 99.3 µM; with SK-MEL-5 melanoma it was 33.2 µM; in the assay on ACHN renal, over 85.4 µM. The figures for the TGI in the assay with UACC-62 melanoma, in the assay with 786-0 renal and in the assay with OVCAR-8 ovarian were over 100 µM, over 100 µM and over 95.1 µM, respectively.
Take `NCCSSCc1ccccc1CSSCCN`: the TGI was over 100 µM with KM12 colon; 43.4 µM in the assay with K-562 leukemia; over 100 µM in the assay with U251 CNS; over 100 µM in the assay with OVCAR-4 ovarian; over 100 µM in the assay with SK-MEL-5 melanoma; over 100 µM in the assay with ACHN renal. The TGI with UACC-62 melanoma, in the assay with 786-0 renal and in the assay with OVCAR-8 ovarian was over 100 µM in each case.
Regarding `COc1ccc(Cc2c3cc(O)c(=O)cc-3ccn2C)cc1`, the total growth inhibition concentration (TGI) in the assay with KM12 colon is over 100 µM; in the assay on K-562 leukemia, over 100 µM; with U251 CNS, over 100 µM; in the assay on OVCAR-4 ovarian, over 100 µM; in the assay on SK-MEL-5 melanoma, over 76.1 µM; in the assay with ACHN renal, over 100 µM. In addition, the values for the TGI in the assay with UACC-62 melanoma, with 786-0 renal and in the assay on OVCAR-8 ovarian were 61 µM, over 66.8 µM and over 100 µM, respectively.
On to `CC(C)(C)C1=CC(=C(P(=O)(O)O)P(=O)(O)O)C=C(C(C)(C)C)C1=O`, for which the TGI with KM12 colon, with K-562 leukemia, in the assay on OVCAR-4 ovarian, in the assay on SK-MEL-5 melanoma, in the assay with ACHN renal and in the assay with UACC-62 melanoma was over 50 µM throughout. Besides, the TGI in the assay with 786-0 renal and in the assay with OVCAR-8 ovarian was over 50 µM each time.
As to `CC(C)N(C(=O)C12C3C4C5(C#N)C3C1(C#N)C5C42C#N)C(C)C` (configuration not stated), the TGI with KM12 colon, in the assay with K-562 leukemia, in the assay with U251 CNS, in the assay with OVCAR-4 ovarian, in the assay with SK-MEL-5 melanoma and in the assay on ACHN renal was over 100 µM in each case. Moreover, the TGI with UACC-62 melanoma, in the assay with 786-0 renal and with OVCAR-8 ovarian was over 100 µM in each case.
Regarding `O=C1C=C(Nc2ccc(Cl)cc2Cl)c2ccccc2C1=O`, the TGI with KM12 colon is over 100 µM; in the assay on K-562 leukemia, over 100 µM; in the assay with U251 CNS, over 100 µM; in the assay with OVCAR-4 ovarian it was over 100 µM; with ACHN renal, over 100 µM; in the assay with UACC-62 melanoma, 32.8 µM. The TGI with 786-0 renal and in the assay with OVCAR-8 ovarian was over 100 µM each time.
In the case of `CSc1ccc2c(cc1=O)[C@@H](NC(=O)c1cccc([N+](=O)[O-])c1)CCc1cc(O)c(O)c(O)c1-2`, the TGI in the assay with KM12 colon is over 100 µM; in the assay with K-562 leukemia it was 77.6 µM; with U251 CNS, 51.5 µM; with OVCAR-4 ovarian, over 100 µM; in the assay on ACHN renal, over 100 µM; in the assay with UACC-62 melanoma, 39.2 µM. For the same compound, the TGI in the assay on 786-0 renal and with OVCAR-8 ovarian was over 100 µM in each case.
For `N#C/C(=C\c1cc(O)cc(O)c1)C(N)=O`, the TGI with KM12 colon, in the assay on K-562 leukemia, in the assay with U251 CNS, with OVCAR-4 ovarian, with ACHN renal and in the assay on UACC-62 melanoma was over 100 µM throughout. Moreover, the TGI with 786-0 renal and in the assay on OVCAR-8 ovarian was over 100 µM each time.
In the case of `CC1(C)OC2C(CCP(=O)(O)O)OC(c3nc(C(N)=O)cs3)C2O1` (configuration not stated), the TGI in the assay on KM12 colon, in the assay with K-562 leukemia, in the assay on U251 CNS, with OVCAR-4 ovarian, with ACHN renal and in the assay with UACC-62 melanoma was over 100 µM each time. The TGI in the assay with 786-0 renal and in the assay on OVCAR-8 ovarian was over 100 µM throughout.
For the compound `NNC(=O)C(=O)N/N=C(\CCCC(=O)Nc1ccc(Cl)cc1)CC(=O)c1ccc(F)cc1`, the TGI with KM12 colon is over 100 µM; in the assay on U251 CNS, over 100 µM; with OVCAR-4 ovarian, over 100 µM; in the assay on SK-MEL-5 melanoma, over 100 µM; with ACHN renal, over 100 µM; in the assay with UACC-62 melanoma it was 78.5 µM. The TGI with 786-0 renal and with OVCAR-8 ovarian was over 100 µM throughout.
